Laboratory results from US9012470B2 (Dart NeuroScience (Cayman) Ltd., priority 2010, dated 2015).

Tested on: benzodiazepine site of GABAA
Test: Binding assay, benzodiazepine site of GABAA (binding assay 1: rat brain, (3H)-flunitrazepam; binding assay 2: bovine hippocampal membranes, [3H]-RY80)
Conditions: radioligand binding; for % Inhibition at 0.1 μM: 0.1 μM test compound; for % Inhibition at 10 μM: 10 μM test compound
Experimental: The ability of a compound disclosed herein to act as ligand to the benzodiazepine site of GABAA can be determined using pharmacological models which are well known in the art using the following assay.
Binding assay 1: Whole brain (except cerebellum) of male Wistar derived rats weighing 175±25 g were used to prepare GABAA central benzodiazepine receptor in Na—K phosphate buffer pH 7.4. A 5 mg aliquot was incubated with 1 nM (^3H)-flunitrazepam for 60 minutes at 25° C. Experiments were performed in the presence or absence of 30 μM of GABA. Non-specific binding was estimated in the presence of 10 μM of diazepam. Membranes were filtered and washed, the filters were then counted to determine (^3H)-flunitrazepam specifically bound. Test compounds were tested in duplicate according to the required concentrations (Damm, H. W., et al. (1978) Res. Comm. Chem. Pathol. Pharmacol. 22: 597-560 incorporated herein in its entirety; Speth, R. C., et al. (1979) Life Sci. 24: 351-357 incorporated herein in its entirety).
Receptor Source: Bovine hippocampal membranes
Radioligand: [3H]-RY80 (40-80 Ci/mmol)
Final ligand concentration—[0.8 nM]
Non-specific Determinant: L-655,708—[0.5 μM]
Binding assay 2 followed procedures based on Li and Szabo (Li M., Szabo A., Rosenberg H. Evaluation of native GABAA receptors containing an α5 subunit. Eur. J. Pharmacol. 413: 63-72 (2001)). Incubation Conditions: Reactions are carried out in 50 mM Tris-Citrate (pH 7.8) containing 200 mM NaCl at 0-4° C. for 60 minutes. The reaction is terminated by rapid vacuum filtration onto glass fiber filters. Radioactivity trapped onto the filters is determined and compared to control values in order to ascertain any interactions of test compound with the benzodiazepine (central) binding site.

| % Inhibition at 0.1 μM | % Inhibition at 10 μM | Compound |
| --- | --- | --- |
|  | A (A indicates % inhibition >80%) | CNC(=O)n1ncc2c3nn(-c4cccc(Cl)c4)c(=O)c-3c[nH]c21 [Compound 6ab, 2-(3-chlorophenyl)-N-methyl-3-oxo-2,3-dihydrodipyrazolo[3,4-b:3′,4′-d]pyridine-6(5H)-carboxamide] |
|  | A (A indicates % inhibition >80%) | CCCCNC(=O)n1ncc2c3nn(-c4cccc(Cl)c4)c(=O)c-3c[nH]c21 [Compound 6ac, N-butyl-2-(3-chlorophenyl)-3-oxo-2,3-dihydrodipyrazolo[3,4-b:3′,4′-d]pyridine-6(5H)-carboxamide] |
| C (C indicates % inhibition <20%) | A (A indicates % inhibition >80%) | CCCCNC(=O)n1ncc2c3nn(-c4ccccc4F)c(=O)c-3c[nH]c21 [Compound 6al, N-butyl-2-(2-fluorophenyl)-3-oxo-2,3-dihydrodipyrazolo[3,4-b:3′,4′-d]pyridine-6(5H)-carboxamide] |
| A (A indicates % inhibition >80%) | A (A indicates % inhibition >80%) | CCNC(=S)n1ncc2c3nn(-c4ccc(Br)cc4)c(=O)c-3c[nH]c21 [Compound 6at, 2-(4-bromophenyl)-N-ethyl-3-oxo-2,3-dihydrodipyrazolo[3,4-b:3′,4′-d]pyridine-6(5H)-carbothioamide] |
|  | A (A indicates % inhibition >80%) | CNC(=O)n1ncc2c3nn(-c4ccc(Cl)cn4)c(=O)c-3c[nH]c21 [Compound 6ax, 2-(5-chloropyridin-2-yl)-N-methyl-3-oxo-2,3-dihydrodipyrazolo[3,4-b:3′,4′-d]pyridine-6(5H)-carboxamide] |
|  | A (A indicates % inhibition >80%) | CNC(=O)n1ncc2c3nn(-c4ccc(Br)cc4)c(=O)c-3c[nH]c21 [Compound 6az, 2-(4-bromophenyl)-N-methyl-3-oxo-2,3-dihydrodipyrazolo[3,4-b:3′,4′-d]pyridine-6(5H)-carboxamide] |
| C (C indicates % inhibition <20%) | A (A indicates % inhibition >80%) | CC(C)CNC(=O)n1ncc2c3nn(-c4ccccc4)c(=O)c-3c[nH]c21 [Compound 6e, N-isobutyl-3-oxo-2-phenyl-2,3-dihydrodipyrazolo[3,4-b:3′,4′-d]pyridine-6(5H)-carboxamide] |
| C (C indicates % inhibition <20%) | C (C indicates % inhibition <20%) | CC(C)NC(=O)n1ncc2c3nn(-c4ccc(Cl)cc4)c(=O)c-3c[nH]c21 [Compound 6p, 2-(4-chlorophenyl)-N-isopropyl-3-oxo-2,3-dihydrodipyrazolo[3,4-b:3′,4′-d]pyridine-6(5H)-carboxamide] |

Second part, the molecule before the results:

| Compound | % Inhibition at 0.1 μM | % Inhibition at 10 μM |
| --- | --- | --- |
| CCNC(=O)n1ncc2c3nn(-c4ccccc4F)c(=O)c-3c[nH]c21 | B (B indicates % inhibition <80% and >20%) | A (A indicates % inhibition >80%) |
| CC(C)NC(=O)n1ncc2c3nn(-c4ccccc4)c(=O)c-3c[nH]c21 [Compound 6a, N-isopropyl-3-oxo-2-phenyl-2,3-dihydrodipyrazolo[3,4-b:3′,4′-d]pyridine-6(5H)-carboxamide] | C (C indicates % inhibition <20%) | B (B indicates % inhibition <80% and >20%) |
| CC(C)NC(=O)n1ncc2c3nn(-c4ccc(C(C)C)cc4)c(=O)c-3c[nH]c21 [Compound 6aa, N-isopropyl-2-(4-isopropylphenyl)-3-oxo-2,3-dihydrodipyrazolo[3,4-b:3′,4′-d]pyridine-6(5H)-carboxamide] |  | B (B indicates % inhibition <80% and >20%) |
| CC(C)NC(=O)n1ncc2c3nn(-c4ccc(C(F)(F)F)cc4)c(=O)c-3c[nH]c21 [Compound 6af, N-isopropyl-3-oxo-2-(4-(trifluoromethyl)phenyl)-2,3-dihydrodipyrazolo[3,4-b:3′,4′-d]pyridine-6(5H)-carboxamide] |  | B (B indicates % inhibition <80% and >20%) |
| CNC(=O)n1ncc2c3nn(-c4ccc(C(F)(F)F)cc4)c(=O)c-3c[nH]c21 [Compound 6ag, N-methyl-3-oxo-2-(4-(trifluoromethyl)phenyl)-2,3-dihydrodipyrazolo[3,4-b:3′,4′-d]pyridine-6(5H)-carboxamide] |  | B (B indicates % inhibition <80% and >20%) |
| CCCCNC(=O)n1ncc2c3nn(-c4ccc(C(F)(F)F)cc4)c(=O)c-3c[nH]c21 [Compound 6ah, N-butyl-3-oxo-2-(4-(trifluoromethyl)phenyl)-2,3-dihydrodipyrazolo[3,4-b:3′,4′-d]pyridine-6(5H)-carboxamide] |  | B (B indicates % inhibition <80% and >20%) |
| CCCCNC(=O)n1ncc2c3nn(-c4cccc(C(F)(F)F)c4)c(=O)c-3c[nH]c21 [Compound 6aj, N-butyl-3-oxo-2-(3-(trifluoromethyl)phenyl)-2,3-dihydrodipyrazolo[3,4-b:3′,4′-d]pyridine-6(5H)-carboxamide] | C (C indicates % inhibition <20%) | B (B indicates % inhibition <80% and >20%) |
| CCCCNC(=O)n1ncc2c3nn(-c4ccc(Cl)cc4F)c(=O)c-3c[nH]c21 [Compound 6ak, N-butyl-2-(4-chloro-2-fluorophenyl)-3-oxo-2,3-dihydrodipyrazolo[3,4-b:3′,4′-d]pyridine-6(5H)-carboxamide] | C (C indicates % inhibition <20%) | A (A indicates % inhibition >80%) |
| CCCCNC(=O)n1ncc2c3nn(-c4ccc(F)cc4F)c(=O)c-3c[nH]c21 [Compound 6an, N-butyl-2-(2,4-difluorophenyl)-3-oxo-2,3-dihydrodipyrazolo[3,4-b:3′,4′-d]pyridine-6(5H)-carboxamide] | B (B indicates % inhibition <80% and >20%) | A (A indicates % inhibition >80%) |
| CCNC(=O)n1ncc2c3nn(-c4ccc(F)cc4F)c(=O)c-3c[nH]c21 [Compound 6ao, 2-(2,4-difluorophenyl)-N-ethyl-3-oxo-2,3-dihydrodipyrazolo[3,4-b:3′,4′-d]pyridine-6(5H)-carboxamide] | B (B indicates % inhibition <80% and >20%) | A (A indicates % inhibition >80%) |
| CC(C)CCNC(=O)n1ncc2c3nn(-c4ccc(F)cc4F)c(=O)c-3c[nH]c21 [Compound 6ap, 2-(2,4-difluorophenyl)-N-isopentyl-3-oxo-2,3-dihydrodipyrazolo[3,4-b:3′,4′-d]pyridine-6(5H)-carboxamide] | C (C indicates % inhibition <20%) | A (A indicates % inhibition >80%) |
| CC(C)CNC(=O)n1ncc2c3nn(-c4ccc(F)cc4F)c(=O)c-3c[nH]c21 [Compound 6aq, 2-(2,4-difluorophenyl)-N-isobutyl-3-oxo-2,3-dihydrodipyrazolo[3,4-b:3′,4′-d]pyridine-6(5H)-carboxamide] | C (C indicates % inhibition <20%) | B (B indicates % inhibition <80% and >20%) |
| CCNC(=S)n1ncc2c3nn(-c4ccc(C(C)C)cc4)c(=O)c-3c[nH]c21 [Compound 6au, N-ethyl-2-(4-isopropylphenyl)-3-oxo-2,3-dihydrodipyrazolo[3,4-b:3′,4′-d]pyridine-6(5H)-carbothioamide] | B (B indicates % inhibition <80% and >20%) | A (A indicates % inhibition >80%) |
| CC(C)NC(=O)n1ncc2c3nn(-c4ccc(Cl)cn4)c(=O)c-3c[nH]c21 [Compound 6aw, 2-(5-chloropyridin-2-yl)-N-isopropyl-3-oxo-2,3-dihydrodipyrazolo[3,4-b:3′,4′-d]pyridine-6(5H)-carboxamide] |  | B (B indicates % inhibition <80% and >20%) |
| CC(C)CCNC(=O)n1ncc2c3nn(-c4ccccc4)c(=O)c-3c[nH]c21 [Compound 6g, N-isopentyl-3-oxo-2-phenyl-2,3-dihydrodipyrazolo[3,4-b:3′,4′-d]pyridine-6(5H)-carboxamide] | B (B indicates % inhibition <80% and >20%) | A (A indicates % inhibition >80%) |
| O=C(N1CCCC1)n1ncc2c3nn(-c4ccccc4)c(=O)c-3c[nH]c21 [Compound 6k, 2-phenyl-6-(pyrrolidine-1-carbonyl)-5,6-dihydrodipyrazolo[3,4-b:3′,4′-d]pyridin-3(2H)-one] | C (C indicates % inhibition <20%) | C (C indicates % inhibition <20%) |
| CCNC(=O)n1ncc2c3nn(-c4cc(C(F)(F)F)cc(C(F)(F)F)c4)c(=O)c-3c[nH]c21 [Compound 6q, 2-(3,5-bis(trifluoromethyl)phenyl)-N-ethyl-3-oxo-2,3-dihydrodipyrazolo[3,4-b:3′,4′-d]pyridine-6(5H)-carboxamide] |  | C (C indicates % inhibition <20%) |
| CC(C)NC(=O)n1ncc2c3nn(-c4cc(C(F)(F)F)cc(C(F)(F)F)c4)c(=O)c-3c[nH]c21 [Compound 6r, 2-(3,5-bis(trifluoromethyl)phenyl)-N-isopropyl-3-oxo-2,3-dihydrodipyrazolo[3,4-b:3′,4′-d]pyridine-6(5H)-carboxamide] |  | B (B indicates % inhibition <80% and >20%) |
